From ChEMBL document CHEMBL1165933, “Diosgenin, a plant-derived sapogenin, enhances regulatory T-cell immunity in the intestine of mice with food allergy” (J Nat Prod, 2010)
Active and inactive are the calls of the source. No cut-off for these calls is given here.

How the values were obtained:
Type in all cases: functional, organism-based
[1] = system: Mus musculus; experiment: Enhancement in regulatory T-cell immunity in intestine of ovalbumin-sensitized and repeatedly challenged BALB/c mouse food allergy model assessed as increase in Foxp3+ and IL10+ cells at 200 mg/kg, po by RT-PCR; set-up: dose 200 mg/kg
[2] = system: Mus musculus; experiment: Enhancement in regulatory T-cell immunity in intestine of ovalbumin-sensitized and repeatedly challenged BALB/c mouse food allergy model assessed as increase in Foxp3+ and IL10+ cells at 100 mg/kg, po by RT-PCR; set-up: dose 100 mg/kg
[3] = system: Mus musculus; experiment: Antiallergic effect in ovalbumin-sensitized and repeatedly challenged BALB/c mouse food allergy model assessed as inhibition of duodenal GATA3 expression at 200 mg/kg, po by immunohistochemistry; set-up: dose 200 mg/kg
[4] = system: Mus musculus; experiment: Effect on T-cell infiltration in ovalbumin-sensitized and repeatedly challenged BALB/c mouse food allergy model assessed as CD3+ cells at 100 mg/kg, po by immunohistochemistry; set-up: dose 100 mg/kg
[5] = system: Mus musculus; experiment: Antiallergic effect in ovalbumin-sensitized and repeatedly challenged BALB/c mouse food allergy model assessed as inhibition of duodenal GATA3 expression at 100 mg/kg, po by immunohistochemistry; set-up: dose 100 mg/kg
[6] = system: Mus musculus; experiment: Antiallergic effect in ovalbumin-sensitized and repeatedly challenged BALB/c mouse food allergy model assessed as attenuation of duodenal interleukin-4 expression at 200 mg/kg, po by immunohistochemistry; set-up: dose 200 mg/kg
[7] = system: Mus musculus; experiment: Effect on TGFbeta+ cells in ovalbumin-sensitized and repeatedly challenged BALB/c mouse food allergy model at 100 mg/kg, po by immunohistochemistry; set-up: dose 100 mg/kg
[8] = system: Mus musculus; experiment: Effect on T-cell infiltration in ovalbumin-sensitized and repeatedly challenged BALB/c mouse food allergy model assessed as CD3+ cells at 200 mg/kg, po by immunohistochemistry; set-up: dose 200 mg/kg
[9] = system: Mus musculus; experiment: Enhancement in regulatory T-cell immunity in intestine of ovalbumin-sensitized and repeatedly challenged BALB/c mouse food allergy model assessed as increase in Foxp3+ and IL10+ cells at 100 mg/kg, po by immunohistochemistry; set-up: dose 100 mg/kg
[10] = system: Mus musculus; experiment: Enhancement in regulatory T-cell immunity in intestine of ovalbumin-sensitized and repeatedly challenged BALB/c mouse food allergy model assessed as increase in Foxp3+ and IL10+ cells at 200 mg/kg, po by immunohistochemistry; set-up: dose 200 mg/kg
[11] = system: Mus musculus; experiment: Antiallergic effect in ovalbumin-sensitized and repeatedly challenged BALB/c mouse food allergy model assessed as attenuation of duodenal interleukin-4 expression at 100 mg/kg, po by immunohistochemistry; set-up: dose 100 mg/kg
[12] = system: Mus musculus; experiment: Effect on TGFbeta+ cells in ovalbumin-sensitized and repeatedly challenged BALB/c mouse food allergy model at 200 mg/kg, po by immunohistochemistry; set-up: dose 200 mg/kg

C[C@@H]1CC[C@@]2(OC1)O[C@H]1C[C@H]3[C@@H]4CC=C5C[C@@H](O)CC[C@]5(C)[C@H]4CC[C@]3(C)[C@H]1[C@@H]2C
Activity [1]: Active | Activity [2]: Active | inhibition [3]: Active | Activity [4]: inactive | inhibition [5]: Active | inhibition [6]: Active | Activity [7]: inactive | Activity [8]: inactive | Activity [9]: Active | Activity [10]: Active | inhibition [11]: Active | Activity [12]: inactive
